Measurements taken from patent US6413996B2, “Diaminocyclobutene-3,4-dione derivatives, their preparation and use” (Neurosearch A/S, priority 1998, dated 2002).
pKd: −log10 of the molar value. Blank lines part the entries; values can stand above or below the compound they belong to.

Key:
[1] = test system: chloride channels in normal erythrocytes; experiment: Cl- conductance (GCl) from concomitant measurement of conductive Cl- netfluxes and membrane potentials in erythrocyte suspensions; assay type: cell-based, human; details: suspension of normal erythrocytes
Source text: (§1) The compounds of the present invention are potent blockers of chloride channels in normal as well as sickle cell erythrocytes.
(§2) All dose-response experiments were therefore performed by concomitant measurements of conductive netfluxes of Cl^− (JCl) and membrane potentials (Vm) in suspensions of erythrocytes (Bennekou, P. and Christophersen, P. (1986), Flux ratio of Valinomycin - Mediated K^+ Fluxes across the Human Red Cell Membrane in the presence of the Protronophore CCCP. J. Membrane Biol. 93, 221-227. ). The membrane Cl^−conductances (GCl) were calculated by the following equation (Hodgkin, A. L. and Huxley, A. F. (1952) The components of membrane conductance in the giant axon of Loligo. J. Physiol. Lond. 116, 449-472): [formula]
(§3) where F is the Faraday constant, ECl is the Nernst potential for the Cl-ion.

[2] = test system: chloride channels in homozygoteous sickle cell erythrocytes; experiment: Cl- conductance (GCl) in suspensions of sickle cell erythrocytes; assay type: cell-based; details: oxygenated as well as deoxygenated homozygoteous sickle cell erythrocytes
Source text: as §1, §2, §3

normal erythrocytes = experiment: K+-flux estimated by measuring extracellular K+-concentration vs time; assay type: cell-based; details: 10 μM
Source text: Deoxygenation induced permeability increases of sickle cells were estimated by measuring the extracellular K^+-concentration vs time. […] The K^+ flux from oxygenated sickle erythrocytes was 2-3 times higher than from normal erythrocytes and these fluxes was accelerated 4 - 8 times upon deoxygenation.

[3] = test system: osteoclast bone resorbtion; details: in vitro (Ohba et al, 1996); cited from earlier work
[4] = test system: vacuolar-type proton pump; details: cited from earlier work
bone degration = details: in vivo, growing young rats (Keeling et al, 1997); cited from earlier work

pKd ([1]; read-out: KD-value for block of GCl): 5.89
SMILES: O=C(Nc1cccc(C(F)(F)F)c1)Nc1ccccc1C(=O)O [3-Trifluoromethylphenyl-2-carboxyphenyl urea]
block of GCl [1]: more than 95%
block of GCl from sickle cell erythrocytes [2]: equipotently blocked
sensitivity of K+-fluxes to compound (normal erythrocytes): insensitive

SMILES: CC(=O)Nc1nnc(S(N)(=O)=O)s1 [acetacolamide]
effect on bone resorbtion in pit formation assay [3]: effective

SMILES: CO/C1=C\C(C)=C\[C@@H](C)[C@@H](O)[C@@H](C)C/C(C)=C/C=C/[C@H](OC)[C@@H]([C@@H](C)[C@@H](O)[C@H](C)[C@@]2(O)C[C@@H](O)[C@H](C)[C@@H](C(C)C)O2)OC1=O [bafilomycin A1]
block of the proton pump [4]: extremely potent, reversible inhibitor
effect on bone resorbtion in pit formation assay [3]: completely eliminates bone resorbtion
effect on bone degration (bone degration): depresses bone degration

SMILES: COc1ccc2[nH]c([S+]([O-])Cc3ncc(C)c(OC)c3C)nc2c1 (stereo not drawn) [omeprazol]
block of the proton pump [4]: ineffective
